This data set concerns primary human lung fibroblasts. In words: 72 hour cell population growth, MTS assay (CellTiter 96 AQueous). In kind it is cell-based. The note with it: for IC50: Homo sapiens, Fibroblast, 72 h, 10% FBS, read-out: mean pIC50, inhibition of cell growth (MTS) (converted). The method, then:
Primary human fibroblasts were isolated by explant culture from non-IPF lung tissue, obtained post mortem following sudden trauma, and IPF lung tissue obtained from the lungs of IPF patients which were removed for transplantation or biopsy. Explants were cultured in DMEM containing high glucose and sodium pyruvate (PAA laboratories, catalogue #E15-011) with penicillin/streptomycin (Sigma #P4333), amphotericin B (Sigma #A2942), L-glutamine (Gibco #25030) and 20% FBS (foetal bovine serum, Lonza, catalogue #14-801F, Lot #1SB003) at 37° C., 100% humidity, 10% CO2. Cells were designated non-IPF (UCL marked 0110 and 0610) and IPF (UCL marked 0207, 0208, 0308, 0507 and 0508) based on medical diagnosis.
Human lung primary fibroblast cell lines were cultured in DMEM containing high glucose and sodium pyruvate supplemented with L-glutamine, penicillin/streptomycin and 10% FBS (complete DMEM) at 37° C., 100% humidity, 10% CO2. Cells were split into T175 flasks (NUNC #159910) 2 to 3 days prior to assay set-up at a density which yields approximately 70-80% confluence at time of harvest for assay. […]
For reading 20 μL of CellTiter 96™ AQueous non-radioactive cell growth assay (MTS) reagent (Promega #G5430) was added to all wells. Plates were incubated for a further 2 hours at 37° C., 100% humidity, 10% CO2 then read at 490 nm on a Versamax microplate reader using Softmax Pro v5 software. Readings were corrected for FBS discoloration as per manufacturer's instructions, by the subtraction of values from media control (no cell) wells.
The maximum fitted (upper asymptote) value for each experiment and used as the 100% reference response. The MTS signal (with media background values subtracted) in the presence of increasing log Molar concentrations of 2,4-difluoro-N-{2-(methyloxy)-5-[4-(4-pyridazinyl)-6-quinolinyl]-3-pyridinyl}benzenesulfonamide were expressed as a % of the maximum asymptote. […]
In a subset of experiments, where cell growth was measured in parallel with activation of caspase 3/7, T0 readings were taken when serum free medium was changed to 10% FBS and compound added. […]
A general note: Tetrazolium assays rely on reduction of a dye to a coloured formazan, in cell work by metabolically active cells.

These results are taken from patent US20160067247A1, “NOVEL USE” (GlaxoSmithKline Intellectual Property (No.2) Limited, priority 2012, published 2016).

Where two headings read alike, the source gives them in different places.

Turning to `COc1ncc(-c2ccc3nccc(-c4ccnnc4)c3c2)cc1NS(=O)(=O)c1ccc(F)cc1F` [2,4-difluoro-N-{2-(methyloxy)-5-[4-(4-pyridazinyl)-6-quinolinyl]-3-pyridinyl}benzenesulfonamide], the IC50 was 31.6 nM (IPF fibroblasts, n=5 cell lines (+/-0.1 SEM)) and 20 nM (primary human non-IPF fibroblasts, n=2 lines (±0.2 SEM)). In addition, the “concentration at which MTS signal with 10% FBS appeared lower than no FBS controls (reduction in cell number, potentially indicative of cell death)” value (fibroblasts) was above 30 nM.
